Source: PMC10466336, “Chemical Probe for Imaging of Polo-like Kinase 4 and Centrioles” (JACS Au, 2023)

How the values were obtained:
HeLa Centrin1-GFP cells = assay: Plk4 foci scoring at different time points of Cen-TCO incubation; format: cell-based, human; conditions: 500 nM
Method: We conjugated trans-cyclooctene to the previously obtained compound (4) to obtain Cen-TCO (3) using the synthetic route outlined in Scheme S2. The resulting Cen-TCO (3) reacted with an appropriate tetrazine, such as SiR650-TetH (4a) (Figure S4A). The reaction was followed by LC-MS, and the data confirmed quantitative conversion of Cen-TCO (3) to the appropriate cycloaddition product Cen-Click-SiR650 (Figure S4A, D). […] To assess the phenotype caused by Cen-TCO (3), we incubated HeLa cells expressing Centrin1-GFP with different concentrations of Cen-TCO (3) for 24 h, followed by scoring of Centrin1-GFP foci numbers (Figure S5B). […] Next, we tested Cen-TCO (3) in combination with different tetrazine partners to determine the optimal combination for our bio-orthogonal strategy. We used four different tetrazines to visualize overexpressed GFP-Plk4(K41M) in HeLa cells following 1 h of incubation with Cen-TCO (500 nM) (Figure S6). […] Furthermore, the high fluorogenicity of HD653 makes it particularly well suited for live cell imaging.[33] Therefore, the combination of Cen-TCO (3) and HD653 (5) was further used for live cell imaging of endogenous Plk4 (Figure 4A). HeLa cells expressing Centrin1-GFP were incubated with 500 nM Cen-TCO (3) for 1 h, followed by a 15 min incubation with 500 nM HD653 (5) and imaged with a confocal microscope without prior washing. Despite the high unspecific background signal, a clear focus could be detected at centrioles (Figure 4B). […] The fwhm of the circular signal in this case was 368 ± 26 (N = 6) (Figure S7B), which corresponds to the size measured with overexpressed GFP-Plk4(K41M) (see Figure 3D), and approximately that of the torus region surrounding the centriole.[40] […] To assess this and test whether early time points after Cen-TCO addition may be immune to this problem, HeLa Centrin1-GFP cells were incubated with Cen-TCO (3) and fixed at different time points thereafter, after which the number of centriolar Plk4 foci per cell was quantified (Figure S8B–F). […]

[1] = biological target: T1, GFP-Plk4(K41M) in transfected HeLa cells (Homo sapiens, UniProt O00444, K41M); assay: Live-cell confocal/STED imaging of overexpressed Plk4; format: cell-based; conditions: 500 nM, live-cell STED, HeLa GFP-Plk4(K41M), N = 5
T1 construct: expressed in transfected cells; host or cells: HeLa
T1 sequence (O00444 1-970 K41M): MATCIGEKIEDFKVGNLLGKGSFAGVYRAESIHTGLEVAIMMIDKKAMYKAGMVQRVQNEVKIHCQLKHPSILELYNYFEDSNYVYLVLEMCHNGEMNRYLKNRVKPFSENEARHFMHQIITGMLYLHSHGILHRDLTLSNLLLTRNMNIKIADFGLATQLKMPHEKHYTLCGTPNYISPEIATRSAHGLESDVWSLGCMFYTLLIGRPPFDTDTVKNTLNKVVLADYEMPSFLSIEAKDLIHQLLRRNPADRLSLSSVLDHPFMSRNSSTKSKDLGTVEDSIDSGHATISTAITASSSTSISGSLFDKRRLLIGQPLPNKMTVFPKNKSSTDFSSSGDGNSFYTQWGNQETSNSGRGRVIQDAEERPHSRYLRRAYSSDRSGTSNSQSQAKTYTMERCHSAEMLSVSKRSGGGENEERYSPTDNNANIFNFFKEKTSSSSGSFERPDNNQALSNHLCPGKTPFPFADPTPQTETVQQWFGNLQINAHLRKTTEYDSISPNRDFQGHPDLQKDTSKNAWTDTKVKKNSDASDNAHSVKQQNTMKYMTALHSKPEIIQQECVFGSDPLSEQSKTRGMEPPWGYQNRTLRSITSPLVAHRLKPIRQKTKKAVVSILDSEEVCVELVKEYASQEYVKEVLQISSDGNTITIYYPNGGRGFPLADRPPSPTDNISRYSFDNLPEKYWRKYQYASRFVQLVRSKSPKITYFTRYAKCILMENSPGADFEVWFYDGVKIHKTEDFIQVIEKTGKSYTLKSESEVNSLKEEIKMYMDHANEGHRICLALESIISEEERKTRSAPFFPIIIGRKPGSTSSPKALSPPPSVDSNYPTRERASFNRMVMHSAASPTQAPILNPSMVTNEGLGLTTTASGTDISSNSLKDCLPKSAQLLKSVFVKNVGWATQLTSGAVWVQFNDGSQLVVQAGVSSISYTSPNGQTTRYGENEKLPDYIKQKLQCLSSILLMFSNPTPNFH

SMILES | effect on Plk4 foci numbers (HeLa Centrin1-GFP cells; after 1 h of incubation) | effect on Plk4 foci numbers around centrioles (HeLa Centrin1-GFP cells; after 4 h) | effect on Plk4 foci numbers (HeLa Centrin1-GFP cells; up to 4 h of incubation) | diameter of the circular SiR595 signal [1] [nm]
COc1c(Nc2cc(C)[nH]n2)nc(Sc2ccc(S(=O)(=O)Cc3cccc([N+](=O)[O-])c3F)cc2F)nc1N1CCC(CC(=O)NCCNC(=O)OC2CC/C=C/CCC2)CC1 (stereo not shown) [compound 3] | no perturbation | significant increase | only minor perturbations | –
COc1c(Nc2cc(C)[nH]n2)nc(Sc2ccc(S(=O)(=O)Cc3cccc([N+](=O)[O-])c3F)cc2F)nc1N1CCC(CC(=O)NCCNC(=O)c2ccc(C(=O)O)c(C3=C4C=CC(=N)C=C4[Si](C)(C)c4cc(N)ccc43)c2)CC1 [2d] | – | – | – | 373 ± 36
